These results are taken from patent publication US20220273765A1, “TOPICAL FORMULATION” (Follicum AB, priority 2019, published 2022).

Where two headings read alike, the source gives them in different places. No end group written: not given here.

Data set [1] relates to C57BL/6 mice in stable telogen phase. The data set is described as follows: Hair growth promotion efficacy in C57BL/6 mouse model by topical route. Format: in vivo. To be noted: 5% solution, 50 μL/cm2 topically twice daily, 4 weeks + 1 week observation. As for the experimental part:
C57Bl6 mice in stable telogen phase (age 6-9 weeks) were carefully clipped. Topical formulation of FOL-005 at three different strengths and placebo was applied at the clipped area once daily, 5 days per week until day 26. For comparison Minoxidil was administered to one group twice daily, 5 days per week until day 26.
The present study was conducted to evaluate the hair growth promotion efficacy of FOL-005 in C57BL/6 mouse model by topical route of administration. Male C57BL/6 mice in stable telogen phase (resting phase) of hair growth cycle were used. The hair on the dorsal back of the animals was clipped and the area was treated with FOL-005 topical formulation, placebo formulation or commercially available Minoxidil 5%.
Three formulations of FOL-005 (High dose—0.5%, Medium dose—0.05% and Low dose—0.005%) along with placebo were screened for hair growth promotion efficacy by applying 50 μL/cm2 on the dorsal clipped skin of animals in the respective groups. The application regimen was total of 4 weeks (5 days/week) followed by 1 week of observation period. […] After completion of observation period, it was observed that FOL-005 formulation led to hair growth promotion efficacy in a dose response manner. […] Visual melanogenesis was also observed in the peeled skin of 3/7 animals, 2/7 animals and 1/7 animal in the High, Medium and Low dose respectively. […]

The nature of data set [2]: Solubility of FOL-005 in vehicle excipients and artificial sebum (HPLC). It is filed as physicochemical. Here is the method: The testing was performed by charging 0.1% (w/w) of FOL-005 together with 99.90% excipient. […] The mixtures were stirred with magnetic stirrer for 2 hours. If particles of FOL-005 remained, the mixture was centrifuged at 14000 rpm or 10000 rpm (artificial sebum) for 5 minutes and the supernatant was withdrawn for analysis. The concentration of FOL-005 was determined by HPLC analysis in all batches.

[3] abbreviates: sodium salt, in PBS buffer pH 7.4, room temperature.

Take `Nc1cc(N2CCCCC2)nc(N)[n+]1[O-]` [Minoxidil]: in data set [1], the “Anagen induction followed by hair growth” value is listed as 4/5 and the “Visual melanogenesis in the peeled skin” value is given as 4/5.
Turning to VDTYDGDISVVYGLR [FOL-005], the solubility at 2 h in data set [2] (0.5% Cithrol in paraffin oil, sodium salt, in 0.5% Cithrol in paraffin oil, room temperature, read-out: FOL-005 solubility) is 10 µg/mL; in data set [2] (10% glucose in water, in 10% Glucose in water, room temperature, read-out: FOL-005 solubility), over 1010 µg/mL; in data set [2] (10% mannitol in water, in 10% Mannitol in water, room temperature, read-out: FOL-005 solubility), over 1040 µg/mL; in data set [2] (10% sucrose in water, in 10% Sucrose in water, room temperature, read-out: FOL-005 solubility), over 1040 µg/mL; in data set [2] (30% glucose in water, in 30% Glucose in water, room temperature, read-out: FOL-005 solubility), over 1070 µg/mL; in data set [2] (30% sucrose in water, in 30% Sucrose in water, room temperature, read-out: FOL-005 solubility), over 1040 µg/mL. Further, the solubility at 2 h in data set [2] (PBS buffer, pH 7.4, sodium salt, in PBS buffer pH 7.4, room temperature, read-out: FOL-005 solubility) was over 1000 µg/mL; in data set [2] (artificial sebum, sodium salt, in artificial sebum, 37° C., read-out: FOL-005 solubility), 270 µg/mL; in data set [2] (lactic acid, in lactic acid, room temperature, read-out: FOL-005 solubility), over 1170 µg/mL; in data set [2] (sugar solutions of glucose, mannitol and sucrose, sodium salt, sugar solutions of glucose, mannitol and sucrose, room temperature, read-out: solubility in sugar solutions), over 1000 µg/mL. Besides, the “solubility of FOL-005 in 10% glucose solution” value in data set [2] (10% glucose solution) is “above 4.38 % (w/w)”. Besides, the Observation result in data set [2] (in 10% Glucose in water, room temperature) is on record as “soluble”; in data set [2] (in 10% Mannitol in water, room temperature) it was “soluble”; in data set [2] (in 10% Sucrose in water, room temperature), “soluble”; in data set [2] (in 30% Glucose in water, room temperature) it was “soluble”; in data set [2] (in 30% Sucrose in water, room temperature) it was “soluble”; in data set [2] (in lactic acid, room temperature), “soluble”. Besides, in data set [2] (setting [3]), the Observation entry is “soluble”. Further, in data set [2] (setting [3]), the FOL-005 solubility was over 980 µg/mL.
